# Measured values published in patent US8546397B2, “DNA methylation inhibitors” (The Ohio State University Research Foundation, priority 2010, dated 2013).
# “Also recorded” adds a separate entry of the source. Like-named read-outs stand apart in the source and are kept apart here.
# Columns and labels:
# Trip10 promoter = test: Methylation-specific PCR (MSP) of Trip10; assay type: cell-based; conditions: MCF7 cells, 7.5 or 30 μM, 5 days of treatment
# Protocol: (§1) Cell culture and drug treatment. […] 5-Aza and procainamide were purchased from Sigma-Aldrich. […] Control cells received DMSO vehicle.
# Bisulfite conversion. Genomic DNA (0.5 μg) was bisulfite-converted by the EZ DNA Methylation Kit (Zymo) by following the manufacturer's instructions.
# qMSP. Bisulfite converted DNAs were PCR-amplified by using appropriate PCR primers. Universal methylated DNAs (Millipore) were used as positive control. Col2A1 was used as a loading control and to amplify the serial diluted (1/10, 1/100 and 1/1000) bisulfite-converted universal methylated DNAs to generate the standard curve for quantization in real time PCR machine (Bio-Rad, iQ5). The methylation percentage was calculated as [(Intensity of Amplifications by Trip10 MSP primer set)×100]/(Intensity of Amplifications by Col2A1 MSP primer set) (%). The qMSP was performed in a 25 μL, of reaction mixture containing 4 μL of template (bisulfate treated DNA), 2 μL of primer pair (2.5 μM), 12.5 μL of 2× reaction buffer (SYBR Green real time PCR Master Mix, Toyobo), and 6.5 μL of H2O.
# GSTp1 = test: Methylation-specific PCR (MSP) of GSTp1; assay type: cell-based; conditions: MCF7 cells, 7.5 or 30 μM, 5 days of treatment
# [1] = tested on: Trip10 promoter methylation (EGFP expression) in MCF7 cells; conditions: for inhibition of EGFP expression (DNA demethylation) in library screening: each compound at 7.5 μM, MCF7 reporter cells; for EGFP expression levels relative to DMSO control: transfected MCF7 cells, different concentrations, 5-day treatment, fluorescence microscopy
# MCF7 cells [2] = tested on: MCF7 cells
# Protocol: (§2) MCF7 breast cancer cells, obtained from American Type Culture Collection, were grown in Minimal Essential Medium (MEM; Invitrogen), supplemented with 10% FBS, 2 mM L-glutamine, and 100 μg/ml penicillin/streptomycin. Cells were cultured at 37° C. in a humidified incubator containing 5% CO2. Medium changes were performed twice weekly and cell passages were performed at 90% confluence. To maintain the two-component constructs in MCF7 cells, 200 μg/mL of hygromycin B (Invitrogen) and 500 μg/mL of Geneticin (G418, Calbiochem) were included in culture medium. 5-Aza and procainamide were purchased from Sigma-Aldrich. Compounds being tested were dissolved in DMSO as stock solutions, and added to culture medium with final DMSO concentrations of 0.3% and 1.2% (v/v) for 7.5 μM and 30 μM of testing drugs, respectively. Control cells received DMSO vehicle. During the 5-day treatment period, medium was changed on the third day of treatment along with the addition of 17β-estradiol (E2, 10 ng/ml).
# (§3) Cell viability was assessed using MTT [3-(4,5-dimethylthiazol-2-yl)-2,5-diphenyl-2H-tetrazolium bromide, Sigma-Aldrich) in six replicates. MCF7 cells were seeded at 4,000 cells per well in 96-well plates, and treated with test agents at different concentrations. […] Reduced MTT was solubilized in 200 μl/well of DMSO for determination of absorbance of 595 nm using a microplate reader.
# [3] = tested on: EGFP expression in MCF7 cells; test: Western blot analysis of EGFP expression; assay type: cell-based; conditions: 7.5 μM, 5 days
# Protocol: as §1
# Western blotting. Equal amounts of protein in cell lysates were separated in 10% SDS polyacrylamide gels and then transblotted to nitrocellulose membranes. After blocking with non-fat milk, the membrane was washed and incubated with antibodies against GFP (Abeam) or (β-actin (Sigma-Aldrich). The membrane was washed, and then incubated with anti-rabbit immunoglobulin G-horseradish peroxidase. After final wash, the proteins were visualized by enhanced chemiluminescence. Immunoblotting data were analyzed by NIH Image.
# In another set of experiment, cells were treated with 7.5 μM of candidate drugs for 5 days, then the cell lysates were harvested and subjected to Western blot. […] The inconsistence between the Western blot result versus the ELISA/images is not immediately clear. Results obtained from ELISA and Western blot confirmed that IM25 is an effective demethylation agent in inhibiting EGFP expression.
# [4] = tested on: EGFP expression in MCF7 cells; test: GFP ELISA of EGFP expression in the two-component reporter system; assay type: cell-based
# Protocol: as §1
# ELISA. Enzyme-linked immunosorbent assay (ELISA) was performed using the GFP ELISA kit (Cell Biolabs, San Diego, Calif.) according to the manufacture's instruction.
# [5] = tested on: genome-wide methylation in MCF7 cells; test: Differential Methylation Hybridization (DMH) array, genome-wide methylation; assay type: cell-based
# Protocol: Differential Methylation Hybridization (DMH) Array. DMH was performed according to a reported procedure. Yan et al., J Nutr, 132(8 Suppl): p. 2430S-2434S (2002). Amplicons prepared from control (vehicle-treated) MCF7 cells were labeled with Cy5 and the amplicons prepared from drug-treated cells were labeled with Cy3. Labeled DNAs were co-hybridized onto 244K Agilent promoter array. Array hybridization results were normalized with LOWESS and a cutoff of 4 folds was used.
# Statistics. ELISA and MTT results were analyzed by F-test. Significant demethylated loci were confirmed by ANOVA from DMH results. Linear regression was used to deduce the global methylation states before and after the demethylation agent treatment.
# cancer cell growth = conditions: Lee et al., J. Biol. Chem. 280 (2005); cited from earlier work
# MCF7 cells [6] = test: MTT cell viability assay; conditions: 5-day treatment, dose range
# Protocol: as §2, §3
Compound,methylation level of Trip10 (Trip10 promoter),methylation level of GSTp1 (GSTp1),inhibition of EGFP expression (DNA demethylation) in library screening [1],suppression of MCF7 cell viability (MCF7 cells [2]),"morphological changes, light microscopy (Vis) [1]",EGFP expression levels relative to DMSO control [1],protein level of EGFP [3],demethylation potency in terms of inhibiting the EGFP expression [4],"global (genome-wide) demethylation ([5]; MCF7 cells, 7.5 μM)","more demethylated loci than after 5-Aza treatment ([5]; out of 244K target loci in Agilent array, significant by ANOVA)",concentration required to be effective in DNA demethylation in suppressing cancer cell growth (cancer cell growth) [µM],suppression of MCF7 cell viability (MCF7 cells [6])
COc1ccc(O)c(C(C)=O)c1 [CI-4-1],"decreases the methylation level of both genes, but to a lesser extent; also recorded: weaker effect in demethylating Trip10 promoter","decreases the methylation level of both genes, but to a lesser extent; also recorded: significantly reduced the methylation level of GSTp1",high activity,,,,,,,,,
"Nc1ncn([C@H]2C[C@H](O)[C@@H](CO)O2)c(=O)n1 [Compound 5-Aza, 5-aza-2′-deoxycytidine]",weaker effect in demethylating Trip10 promoter,significantly reduced the methylation level of GSTp1,,did not cause morphological changes [light microscopy (Vis)] or suppression of cell viability,did not cause morphological changes,"dose-dependent, repressive effects on EGFP expression levels",,,,,,
O=S(=O)(c1ccc(Br)cc1)N1CCNCC1 [IM9],,,,,,,significantly inhibited,,,,,
COc1ccc(S(=O)(=O)N2CCNCC2)cc1OC [IM25],greatest potency in facilitating the demethylation of both Trip10 and GSTp1; also recorded: weaker effect in demethylating Trip10 promoter,greatest potency in facilitating the demethylation of both Trip10 and GSTp1; also recorded: significantly reduced the methylation level of GSTp1,high activity,,,,substantially suppressed,greater demethylation potency than 5-Aza,able to cause global demethylation in MCF7 cells,"5,506 loci",,
CCN(CC)CCNC(=O)c1ccc(N)cc1 [procainamide],weaker effect in demethylating Trip10 promoter,significantly reduced the methylation level of GSTp1,,,did not cause morphological changes,"dose-dependent, repressive effects on EGFP expression levels",,,,,≥ 50,did not cause morphological changes [light microscopy (Vis)] or suppression of cell viability
